How the values were obtained:
[1] = molecular target: T1, interaction of PKCι polypeptides with PAR6 polypeptides (Homo sapiens, UniProt P41743); test: Secondary screen: PYN bound to plate-immobilised biotin-tagged PAR6; type: binding; conditions: for Secondary Screen: amount of PYN bound to biotin-tagged PAR6 plates
T1 construct: amino acids 1-113 or a full-length PKCι polypeptide; 6xHis; made in house
T1 sequence (P41743 10-122): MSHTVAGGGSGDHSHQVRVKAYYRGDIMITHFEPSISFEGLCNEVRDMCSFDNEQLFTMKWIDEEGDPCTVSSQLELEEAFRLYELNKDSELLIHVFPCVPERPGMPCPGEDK
Protocol: Multiple test compounds that were classified as hits in the primary screen as well as additional related compounds were evaluated in a secondary screen designed as follows. Briefly, a 96-well microtiter plate coated with streptavidin (Nunc #436014) was incubated for 2-4 hours at room temperature with 100 μl of a 20-30 μg/ml solution of biotin-tagged PAR6 (whole polypeptide) in phosphate-buffered saline containing Tween-20 (PBST). Plates were washed twice with PBST, then once with incubation buffer (50 mM Tris, pH 8.0; 135 mM NaCl; 10% glycerol; 0.002% EDTA). Incubation buffer (50 μl) was added to each well. The compounds to be tested were added (10 μl) followed by PYN (50 μl) diluted in incubation buffer to an approximate concentration of 4000-5000 relative fluorescent units per 50 μl. Plates were incubated overnight at 4° C. Plates were washed twice with incubation buffer, after which 50 μl incubation buffer was added to retain moisture in the wells. The amount of PYN bound on the plates was determined by measuring yellow fluorescence (532/526) in a Typhoon imager. Fluorescence was quantitated by Softmax Pro software.
A dose-response analysis was performed using the secondary screening assay and increasing amounts (e.g., 0, 0.1, 1, 10, 100, and […]) of gossypol, hexestrol, thimerosal, ebselen, ATG, ATM, ellagic acid, cisplatin, apomorphine, or phenylmercuric acetate.

A549 cells = test: Soft agar growth assay (anchorage-independent growth) of A549 cells; type: cell-based, human; conditions: A549 cells, FIG. 20
Protocol: (§1) Anchorage-independent growth was assayed by the ability of cells to form colonies in soft agar. The bottom agar consisted of growth medium containing 10% FBS and 0.75% agarose in 60-mm tissue culture dishes. Nine hundred cells were resuspended in growth medium containing 10% FBS and 0.75% agarose, and plated on top of the bottom agar. The cells were incubated at 37° C. in 5% CO2. Cell colonies were visualized and quantified under a dissecting microscope (Olympus) after 4-6 weeks in culture.
as §1, with “Soft Agar Growth Assays: Anchorage-independent growth” for “Anchorage-independent growth”, “and 0.75% agarose and plated” for “and 0.75% agarose, and plated”, “bottom agar. ATG was added at the indicated concentration to both bottom and top agar solutions. The cells” for “bottom agar. The cells”

[2] = tested on: A549 human lung carcinoma cells; test: Tumorigenicity in nude mice: A549 subcutaneous tumors; type: in vivo, mouse; conditions: 200 mg/kg body weight intraperitoneal daily, versus saline; FIG. 21
Protocol: Tumorigenicity in Nude Mice: The growth of A549 human lung carcinoma cells as established subcutaneous tumors was studied in athymic nude mice (Harlan-Sprague-Dawley, Indianapolis, Ind.) in a defined pathogen-free environment. Briefly, A549 cells were grown in F-12K Nutrient Mixture containing 10% FBS. A549 cells were harvested and resuspended in serum-containing medium. 5×10^6 cells in 100 μl of growth medium were injected subcutaneously into the flank of 4-6 week old female nude mice. Once palpable tumors were established (15 days after inoculation) animals were randomly segregated into two groups. One group received intraperitoneal injections of ATG (200 mg/kg body weight) daily; the second group received an equivalent volume of diluent control solution. Tumor size was measured daily. Tumor growth was quantified by measuring the tumors in three dimensions with calipers. Tumor volume (mm^3) was calculated using the formula: 0.5236 (L×W×H), where L represents the length of the tumor, W represents the width of the tumor, and H represents the height of the tumor. Animals were individually monitored throughout the experiment.

OC[C@H]1O[C@H]([S-])[C@H](O)[C@@H](O)[C@@H]1O.[Au+] [Aurothioglucose]
Secondary Screen [1]: Confirmed | Secondary Screen ([1]; listed as aurothioglucose): confirmed | dose-response analysis using the secondary screening assay ([1]; increasing amounts, e.g. 0, 0.1, 1, 10, 100, and 100 μM): dose-dependent response was detected | soft agar growth (A549 cells; 10 μM): decreased soft agar growth | soft agar growth (A549 cells; 100 μM): decreased soft agar growth | tumor growth (tumor volume) [2]: less tumor growth

— patent US7642400B2, “Protein kinase C iota” (Mayo Foundation for Medical Education and Research, priority 2004, dated 2010)
